Entries after “also recorded” stand apart in the source; their conditions may differ.
Columns and labels:
[1] = test system: CYP1A2; assay: in vitro; format: in vitro ADME, human; settings: 48 h
[2] = target: T1, human BCRP (Homo sapiens, UniProt Q9UNQ0); assay: Transporter inhibition, vesicular transport assay; format: in vitro ADME
T1 sequence (Q9UNQ0 1-655): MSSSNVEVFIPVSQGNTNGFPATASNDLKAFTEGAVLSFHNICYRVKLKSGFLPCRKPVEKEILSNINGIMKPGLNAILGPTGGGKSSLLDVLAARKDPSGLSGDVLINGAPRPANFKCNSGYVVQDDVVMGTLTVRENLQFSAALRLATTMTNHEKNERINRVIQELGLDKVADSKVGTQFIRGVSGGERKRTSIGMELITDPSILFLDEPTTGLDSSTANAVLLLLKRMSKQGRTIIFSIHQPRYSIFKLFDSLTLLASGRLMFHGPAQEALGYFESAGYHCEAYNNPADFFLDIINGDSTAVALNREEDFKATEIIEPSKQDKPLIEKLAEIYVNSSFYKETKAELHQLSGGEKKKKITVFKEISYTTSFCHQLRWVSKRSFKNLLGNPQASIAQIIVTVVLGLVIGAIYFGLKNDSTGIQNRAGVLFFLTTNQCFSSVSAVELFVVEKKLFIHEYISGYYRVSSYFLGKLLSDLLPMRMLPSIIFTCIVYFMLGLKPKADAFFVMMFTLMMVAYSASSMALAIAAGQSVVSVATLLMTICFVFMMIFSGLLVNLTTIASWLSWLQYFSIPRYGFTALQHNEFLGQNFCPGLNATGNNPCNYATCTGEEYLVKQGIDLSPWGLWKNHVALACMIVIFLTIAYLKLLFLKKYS

[3] = target: human BSEP (Homo sapiens, UniProt O95342); assay: Transporter inhibition, vesicular transport assay; format: in vitro ADME
[4] = test system: CYP isoforms (1A2, 2B6, 2C8, 2C9, 2C19, 2D6, 3A4); assay: Time‐dependent and mechanism‐based CYP inhibition; format: in vitro ADME, human; settings: 30 min preincubation in absence and presence of NADPH

human BSEP, sequence (O95342 whole entry, canonical isoform): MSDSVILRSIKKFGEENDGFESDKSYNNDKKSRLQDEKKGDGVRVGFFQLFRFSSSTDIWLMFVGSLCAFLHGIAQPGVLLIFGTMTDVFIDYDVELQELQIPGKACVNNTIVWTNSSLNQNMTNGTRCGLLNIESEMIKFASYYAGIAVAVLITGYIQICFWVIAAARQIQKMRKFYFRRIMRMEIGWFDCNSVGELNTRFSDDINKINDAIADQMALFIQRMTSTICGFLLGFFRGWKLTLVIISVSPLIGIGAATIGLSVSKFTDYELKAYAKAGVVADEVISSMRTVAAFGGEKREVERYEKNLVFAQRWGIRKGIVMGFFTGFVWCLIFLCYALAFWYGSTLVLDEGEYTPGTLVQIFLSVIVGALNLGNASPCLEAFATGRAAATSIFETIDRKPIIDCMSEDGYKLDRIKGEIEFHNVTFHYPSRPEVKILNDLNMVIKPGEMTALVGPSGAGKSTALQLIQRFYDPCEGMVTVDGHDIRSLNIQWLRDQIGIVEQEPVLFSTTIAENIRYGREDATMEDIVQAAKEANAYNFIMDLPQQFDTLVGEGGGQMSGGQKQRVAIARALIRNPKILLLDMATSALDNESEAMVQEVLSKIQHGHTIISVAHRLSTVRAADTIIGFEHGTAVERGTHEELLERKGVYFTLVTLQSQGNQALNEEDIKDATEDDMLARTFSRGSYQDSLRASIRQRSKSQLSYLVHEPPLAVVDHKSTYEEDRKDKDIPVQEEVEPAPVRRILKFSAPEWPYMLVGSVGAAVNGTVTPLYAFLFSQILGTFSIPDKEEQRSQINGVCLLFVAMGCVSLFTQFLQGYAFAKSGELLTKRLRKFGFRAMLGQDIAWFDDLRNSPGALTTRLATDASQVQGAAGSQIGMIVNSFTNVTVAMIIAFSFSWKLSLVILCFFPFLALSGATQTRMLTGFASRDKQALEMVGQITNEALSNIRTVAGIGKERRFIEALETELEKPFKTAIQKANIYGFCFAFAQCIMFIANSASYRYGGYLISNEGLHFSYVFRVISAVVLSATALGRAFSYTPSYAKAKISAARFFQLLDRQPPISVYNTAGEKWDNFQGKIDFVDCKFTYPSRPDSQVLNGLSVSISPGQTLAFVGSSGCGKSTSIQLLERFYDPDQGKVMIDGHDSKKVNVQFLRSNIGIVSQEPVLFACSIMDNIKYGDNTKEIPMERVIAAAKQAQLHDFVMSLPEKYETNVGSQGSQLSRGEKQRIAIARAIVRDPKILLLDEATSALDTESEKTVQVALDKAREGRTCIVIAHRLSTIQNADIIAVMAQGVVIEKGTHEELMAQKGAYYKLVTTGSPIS

CC1=N[C@]2(C(=O)CO)[C@@H](C[C@H]3[C@@H]4C[C@@H](O)C5=CC(=O)C=C[C@]5(C)[C@H]4[C@@H](O)C[C@@]32C)O1 [6β‐OH‐21‐desDFZ, 6β‐Hydroxy‐21‐desacetyl deflazacort]
CYP1A2 enzyme activity fold induction ([1]; donor one, 0.002 µM): 0.783 fold
CYP1A2 mRNA fold induction ([1]; donor one, 0.002 µM): 0.657 fold
CYP1A2 enzyme activity fold induction ([1]; donor one, 0.01 µM): 0.671 fold
CYP1A2 mRNA fold induction ([1]; donor one, 0.01 µM): 0.735 fold
CYP1A2 enzyme activity fold induction ([1]; donor one, 0.05 µM): 0.649 fold
CYP1A2 mRNA fold induction ([1]; donor one, 0.05 µM): 0.735 fold
CYP1A2 enzyme activity fold induction ([1]; donor one, 0.25 µM): 0.753 fold
CYP1A2 mRNA fold induction ([1]; donor one, 0.25 µM): 0.667 fold
CYP1A2 enzyme activity fold induction ([1]; donor one, 5 µM): 0.770 fold
CYP1A2 mRNA fold induction ([1]; donor one, 5 µM): 0.628 fold
CYP1A2 enzyme activity fold induction ([1]; donor one, 10 µM): 0.772 fold
CYP1A2 mRNA fold induction ([1]; donor one, 10 µM): 0.619 fold
CYP1A2 enzyme activity fold induction ([1]; donor one, 20 µM): 0.699 fold
CYP1A2 mRNA fold induction ([1]; donor one, 20 µM): 0.741 fold
CYP1A2 enzyme activity fold induction ([1]; donor three, 0.002 µM): 1.01 fold
CYP1A2 mRNA fold induction ([1]; donor three, 0.002 µM): 0.665 fold
CYP1A2 enzyme activity fold induction ([1]; donor three, 0.01 µM): 0.892 fold
CYP1A2 mRNA fold induction ([1]; donor three, 0.01 µM): 0.744 fold
CYP1A2 enzyme activity fold induction ([1]; donor three, 0.05 µM): 0.812 fold
CYP1A2 mRNA fold induction ([1]; donor three, 0.05 µM): 0.701 fold
CYP1A2 enzyme activity fold induction ([1]; donor three, 0.25 µM): 0.747 fold
CYP1A2 mRNA fold induction ([1]; donor three, 0.25 µM): 0.610 fold
CYP1A2 enzyme activity fold induction ([1]; donor three, 5 µM): 0.870 fold
CYP1A2 mRNA fold induction ([1]; donor three, 5 µM): 0.635 fold
CYP1A2 enzyme activity fold induction ([1]; donor three, 10 µM): 0.954 fold
CYP1A2 mRNA fold induction ([1]; donor three, 10 µM): 0.647 fold
CYP1A2 enzyme activity fold induction ([1]; donor three, 20 µM): 0.955 fold
CYP1A2 mRNA fold induction ([1]; donor three, 20 µM): 0.723 fold
CYP1A2 enzyme activity fold induction ([1]; donor two, 0.002 µM): 0.913 fold
CYP1A2 mRNA fold induction ([1]; donor two, 0.002 µM): 0.978 fold
CYP1A2 enzyme activity fold induction ([1]; donor two, 0.01 µM): 0.880 fold
CYP1A2 mRNA fold induction ([1]; donor two, 0.01 µM): 0.871 fold
CYP1A2 enzyme activity fold induction ([1]; donor two, 0.05 µM): 0.838 fold
CYP1A2 mRNA fold induction ([1]; donor two, 0.05 µM): 0.928 fold
CYP1A2 enzyme activity fold induction ([1]; donor two, 0.25 µM): 0.832 fold
CYP1A2 mRNA fold induction ([1]; donor two, 0.25 µM): 0.979 fold
CYP1A2 enzyme activity fold induction ([1]; donor two, 5 µM): 1.18 fold
CYP1A2 mRNA fold induction ([1]; donor two, 5 µM): 0.786 fold
CYP1A2 enzyme activity fold induction ([1]; donor two, 10 µM): 1.07 fold
CYP1A2 mRNA fold induction ([1]; donor two, 10 µM): 0.840 fold
CYP1A2 enzyme activity fold induction ([1]; donor two, 20 µM): 1.18 fold
CYP1A2 mRNA fold induction ([1]; donor two, 20 µM): 0.886 fold
Maximum inhibition at 50 µM ([2]; BCRP VT, n = 3): <20 % of control
inhibitory interaction with transporter ([2]; BCRP, up to 50 µM): no inhibitory interaction
Maximum inhibition at 50 µM ([3]; BSEP VT, n = 3): 27 % of control
inhibitory interaction with transporter ([3]; BSEP, up to 50 µM): no inhibitory interaction
time‐dependent or mechanism‐based inhibition (IC50 shift) [4]: neither time‐dependent nor metabolism‐based; also recorded: did not appear to be a time‐dependent or mechanism‐based inhibitor

— article PMC7982320 (Pharmacology Research & Perspectives, 2021)
